Drawing on patent US20260083851A1 (AVILAR THERAPEUTICS, INC., priority 2022, published 2026), this text covers Kd for 37 compounds.

This assay concerns the target T1, ASGP receptor (biotinylated ASGPR) (Homo sapiens, UniProt P07306).
T1 construct: biotin (biotinylated)
T1 sequence (P07306 1-291): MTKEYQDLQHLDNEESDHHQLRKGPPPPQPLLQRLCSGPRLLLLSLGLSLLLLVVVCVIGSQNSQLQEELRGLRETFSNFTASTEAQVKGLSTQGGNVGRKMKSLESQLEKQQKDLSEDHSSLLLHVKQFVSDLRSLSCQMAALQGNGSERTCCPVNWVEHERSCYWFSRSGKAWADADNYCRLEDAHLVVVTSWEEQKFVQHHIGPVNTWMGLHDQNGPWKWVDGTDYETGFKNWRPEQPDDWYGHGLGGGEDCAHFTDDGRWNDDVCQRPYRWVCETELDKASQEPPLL
The assay is classed as binding. As to conditions: SPR, Biacore 8K, 25° C. A general note: In SPR one partner is held on a chip, and binding of the other changes the refractive index at the surface.

The mark [1] stands for this setting: Table 1B, numeric bound, read-out: ASGPR Kd.

Read-outs that look alike come from different tables or passages of the source.

One may read the Kd as the constant that tells how readily two partners part at equilibrium. Consider `CC(C)N[C@H]1CO[C@H](CO)[C@H](O)[C@@H]1O` [A163, (2R,3R,4R,5S)-2-(hydroxymethyl)-5-(isopropylamino)tetrahydro-2H-pyran-3,4-diol], for which the equilibrium dissociation constant (Kd) under setting [1] is more than 30 µM.

`O=C(NC[C@H]1OC[C@H](Nc2cncc(C(F)(F)F)n2)[C@@H](O)[C@H]1O)c1cccc(F)c1` [A24, N-(((2R,3R,4R,5S)-3,4-dihydroxy-5-((6-(trifluoromethyl)pyrazin-2-yl)amino)tetrahydro-2H-pyran-2-yl)methyl)-3-fluorobenzamide]: the Kd (Table 1A, read-out: ASGPR KD) is less than 10 µM.

On to `OC[C@H]1O[C@H](c2ccccc2)[C@H](Nc2nccc(C(F)(F)F)n2)[C@@H](O)[C@H]1O` [A96, (2R,3R,4R,5R,6R)-2-(hydroxymethyl)-6-phenyl-5-((4-(trifluoromethyl)pyrimidin-2-yl)amino)tetrahydro-2H-pyran-3,4-diol], for which, for the setting “Table 1A, read-out: ASGPR KD”, the Kd is less than 10 µM.

`C[C@H]1O[C@H](COc2cccc(C(F)(F)F)n2)[C@H](Oc2cnccn2)[C@@H](O)[C@H]1O` [A450]: the Kd (Table 1E, read-out: ASGPR KD) was less than 10 µM.

On to `C[C@H]1O[C@H](c2ccc3ccccc3n2)[C@H](Oc2cccc(C(F)(F)F)n2)[C@@H](O)[C@H]1O` [A343], for which the Kd (Table 1C, read-out: ASGPR KD) is less than 10 µM.

As to `O[C@@H]1[C@H](O)[C@@H](Nc2cccc(C(F)(F)F)n2)CO[C@@H]1COc1ccc(Br)cc1` [A236, (2R,3R,4R,5S)-2-((4-bromophenoxy)methyl)-5-((6-(trifluoromethyl)pyridin-2-yl)amino)tetrahydro-2H-pyran-3,4-diol], for the setting “Table 1C, read-out: ASGPR KD”, the Kd is less than 10 µM.

On to `O=C(OCc1ccccc1)N1C[C@H](Nc2nc(Cl)nn3cccc23)[C@@H](O)[C@@H](O)C1` [A380], for which the Kd (Table 1D, read-out: ASGPR KD) is less than 10 µM.

Turning to `O=C(O)COCCOCC(=O)NC[C@H]1OC[C@H](Nc2nc(C(F)(F)F)ccc2F)[C@@H](O)[C@H]1O` [A110, 2-(2-(2-((((2R,3R,4R,5S)-5-((3-fluoro-6-(trifluoromethyl)pyridin-2-yl)amino) 3,4-dihydroxytetrahydro-2H-pyran-2-yl)methyl)amino)-2-oxoethoxy)ethoxy)acetic acid], the Kd (Table 1A, read-out: ASGPR KD) was less than 10 µM.

As to `O[C@@H]1[C@H](O)[C@@H](Nc2cncc(C(F)(F)F)n2)CO[C@@H]1CN1CCNCC1` [A91, (2R,3R,4R,5S)-2-(piperazin-1-ylmethyl)-5-((6-(trifluoromethyl)pyrazin-2-yl)amino)tetrahydro-2H-pyran-3,4-diol], the Kd (Table 1A, read-out: ASGPR KD) was less than 10 µM.

Take `C[C@H]1O[C@H](COc2cnccn2)[C@H](Oc2cccc(C(F)(F)F)n2)[C@@H](O)[C@H]1O` [A449]: the Kd (Table 1E, read-out: ASGPR KD) is less than 10 µM.

`O=C1CCCN1C[C@H]1OC[C@H](Oc2cccc(C(F)(F)F)n2)[C@@H](O)[C@H]1O` [A258]: where the note is “Table 1C, read-out: ASGPR KD”, the Kd is less than 10 µM.

For the compound `OC[C@H]1OC[C@H](N(CC2CC2)CC2CC2)[C@@H](O)[C@H]1O` [A160, (2R,3R,4R,5S)-5-(bis(cyclopropylmethyl)amino)-2-(hydroxymethyl)tetrahydro-2H-pyran-3,4-diol], the equilibrium dissociation constant (Kd) under setting [1] was more than 30 µM.

Turning to `O[C@@H]1[C@H](O)[C@@H](Oc2cccc(C(F)(F)F)n2)CO[C@@H]1COc1cnccn1` [A229, (2R,3R,4S,5S)-2-((pyrazin-2-yloxy)methyl)-5-((6-(trifluoromethyl)pyridin-2-yl)oxy)tetrahydro-2H-pyran-3,4-diol], the Kd (Table 1C, read-out: ASGPR KD) is less than 10 µM.

Take `O=C(O)c1ccc(-c2ccc(OC[C@H]3OC[C@H](Oc4cccc(C(F)(F)F)n4)[C@@H](O)[C@H]3O)cc2)nn1` [A221, 6-(4-(((2R,3R,4S,5S)-3,4-dihydroxy-5-((6-(trifluoromethyl)pyridin-2-yl)oxy)tetrahydro-2H-pyran-2-yl)methoxy)phenyl)pyridazine-3-carboxylic acid]: the Kd (Table 1C, read-out: ASGPR KD) was less than 10 µM.

As for `O=C(O)CNC(COCCC(=O)NC[C@H]1OC[C@H](Nc2cncc(C(F)(F)F)n2)[C@@H](O)[C@H]1O)COCCC(=O)NC[C@H]1OC[C@H](Nc2cncc(C(F)(F)F)n2)[C@@H](O)[C@H]1O` [A23, (1,15-bis((2R,3R,4R,5S)-3,4-dihydroxy-5-((6-(trifluoromethyl)pyrazin-2-yl)amino)tetrahydro-2H-pyran-2-yl)-3,13-dioxo-6,10-dioxa-2,14-diazapentadecan-8-yl)glycine], under “Table 1A, numeric bound, read-out: ASGPR KD”, the Kd was more than 20 µM.

In the case of `O[C@@H]1[C@@H](Oc2cccc(C(F)(F)F)n2)CN(c2cnccn2)C[C@@H]1O` [A425], the dissociation constant (Kd) (Table 1D, read-out: ASGPR KD) is less than 10 µM.

On to `O[C@@H]1[C@H](O)[C@@H](Nc2cncc(C(F)(F)F)n2)CO[C@@H]1COCCOCCNc1cnccn1` [A56, (2R,3R,4R,5S)-2-((2-(2-(pyrazin-2-ylamino)ethoxy)ethoxy)methyl)-5-((6-(trifluoromethyl)pyrazin-2-yl)amino)tetrahydro-2H-pyran-3,4-diol], for which the Kd (Table 1A, read-out: ASGPR KD) was less than 10 µM.

Take `OC[C@H]1OC[C@H](NC2CCCC(C(F)(F)F)C2)[C@@H](O)[C@H]1O` (stereo partly drawn) [A158, (2R,3R,4R,5S)-2-(hydroxymethyl)-5-((3-(trifluoromethyl)cyclohexyl)amino) tetrahydro-2H-pyran-3,4-diol]: the Kd under setting [1] was more than 30 µM.

As to `O=C(NC[C@H]1OC[C@H](Nc2cncc(C(F)(F)F)n2)[C@@H](O)[C@H]1O)c1ccccn1` [A74, N-(((2R,3R,4R,5S)-3,4-dihydroxy-5-((6-(trifluoromethyl)pyrazin-2-yl)amino)tetrahydro-2H-pyran-2-yl)methyl)picolinamide], the Kd (Table 1A, read-out: ASGPR KD) was less than 10 µM.

With `C[C@H]1O[C@H](c2ccc3c(c2)CNC3)[C@H](Oc2cccc(C(F)(F)F)n2)[C@@H](O)[C@H]1O` [A341], where the note is “Table 1C, read-out: ASGPR KD”, the Kd is less than 10 µM.

As for `CN1C[C@H](Nc2cncc(C(F)(F)F)n2)[C@@H](O)[C@@H](O)C1` [A363], the equilibrium dissociation constant (Kd) (Table 1D, read-out: ASGPR KD) was less than 10 µM.

Consider `O=C(c1ccccc1)N1C[C@H](Nc2cncc(C(F)(F)F)n2)[C@@H](O)[C@@H](O)C1` [A422], for which, under “Table 1D, read-out: ASGPR KD”, the Kd was less than 10 µM.

`O=C(O)c1ccc(-c2ccc(CN3C[C@H](Nc4cncc(C(F)(F)F)n4)[C@@H](O)[C@@H](O)C3)cc2)cc1` [A387]: the Kd (Table 1D, read-out: ASGPR KD) is less than 10 µM.

As for `O[C@@H]1[C@H](O)[C@@H](Oc2cccc(C(F)(F)F)n2)CO[C@@H]1CN1CCC1` [A245], the Kd (Table 1C, read-out: ASGPR KD) is less than 10 µM.

For `O[C@@H]1[C@H](O)[C@@H](Nc2cncc(C(F)(F)F)n2)CO[C@@H]1COc1ncccn1` [A61, (2R,3R,4R,5S)-2-((pyrimidin-2-yloxy)methyl)-5-((6-(trifluoromethyl)pyrazin-2-yl)amino)tetrahydro-2H-pyran-3,4-diol], under “Table 1A, read-out: ASGPR KD”, the Kd was less than 10 µM.

Take `CC[C@H]1O[C@H](C)[C@H](O)[C@H](O)[C@H]1Oc1cccc(C(F)(F)F)n1` [A316]: the Kd (Table 1C, read-out: ASGPR KD) is less than 10 µM.

Regarding `O=C(O)c1ccc(N2CCN(C[C@H]3OC[C@H](Oc4cccc(C(F)(F)F)n4)[C@@H](O)[C@H]3O)CC2)nn1` [A276], the Kd (Table 1C, read-out: ASGPR KD) was less than 10 µM.

Regarding `O=C(O)c1cnc(OC[C@H]2OC[C@H](Nc3cncc(C(F)(F)F)n3)[C@@H](O)[C@H]2O)nc1` [A194, 2-(((2R,3R,4R,5S)-3,4-dihydroxy-5-((6-(trifluoromethyl)pyrazin-2-yl)amino)tetrahydro-2H-pyran-2-yl)methoxy)pyrimidine-5-carboxylic acid], for the setting “Table 1C, read-out: ASGPR KD”, the Kd was less than 10 µM.

As to `O=C(NC[C@H]1OC[C@H](Nc2cncc(C(F)(F)F)n2)[C@@H](O)[C@H]1O)c1ccncc1` [A80, N-(((2R,3R,4R,5S)-3,4-dihydroxy-5-((6-(trifluoromethyl)pyrazin-2-yl)amino)tetrahydro-2H-pyran-2-yl)methyl)isonicotinamide], the Kd (Table 1A, read-out: ASGPR KD) was less than 10 µM.

With `CCN1C[C@H](O)[C@H](O)[C@@H](N(C)c2cncc(C(F)(F)F)n2)C1` [A366], the Kd (Table 1D, read-out: ASGPR KD) is less than 10 µM.

Turning to `O=C(O)c1ccc(OC[C@H]2OC[C@H](Nc3cncc(C(F)(F)F)n3)[C@@H](O)[C@H]2O)nn1` [A186, 6-(((2R,3R,4R,5S)-3,4-dihydroxy-5-((6-(trifluoromethyl)pyrazin-2-yl)amino)tetrahydro-2H-pyran-2-yl)methoxy)pyridazine-3-carboxylic acid], the Kd (Table 1C, read-out: ASGPR KD) is less than 10 µM.

For the compound `OC[C@H]1OC[C@H](Nc2ncc3cn[nH]c3n2)[C@@H](O)[C@H]1O` [A183, (2R,3R,4R,5S)-5-((1H-pyrazolo[3,4-d]pyrimidin-6-yl)amino)-2-(hydroxymethyl)tetrahydro-2H-pyran-3,4-diol], under “Table 1C, numeric bound, read-out: ASGPR KD”, the equilibrium dissociation constant (Kd) was more than 30 µM.

For `O[C@@H]1[C@H](O)[C@@H](Oc2cccc(C(F)(F)F)n2)CO[C@@H]1CSc1ccccn1` [A307], the Kd (Table 1C, read-out: ASGPR KD) was less than 10 µM.

On to `CC(C)(C)OC(=O)N1CCC(n2cc([C@H]3OC[C@H](Nc4cncc(C(F)(F)F)n4)[C@@H](O)[C@H]3O)nn2)CC1` [A193, tert-butyl 4-(4-((2R,3R,4R,5S)-3,4-dihydroxy-5-((6-(trifluoromethyl)pyrazin-2-yl)amino)tetrahydro-2H-pyran-2-yl)-1H-1,2,3-triazol-1-yl)piperidine-1-carboxylate], for which the dissociation constant (Kd) (Table 1C, read-out: ASGPR KD) is less than 10 µM.

For `O=C(NC[C@H]1OC[C@H](Nc2cncc(C(F)(F)F)n2)[C@@H](O)[C@H]1O)c1cnc(-c2ccccc2)cn1` [A83, N-(((2R,3R,4R,5 S)-3,4-dihydroxy-5-((6-(trifluoromethyl)pyrazin-2-yl)amino)tetrahydro-2H-pyran-2-yl)methyl)-5-phenylpyrazine-2-carboxamide], the Kd (Table 1A, read-out: ASGPR KD) is less than 10 µM.

On to `O[C@@H]1[C@@H](Nc2cncc(C(F)(F)F)n2)CN(CC(F)(F)F)C[C@@H]1O` [A367], for which the Kd (Table 1D, read-out: ASGPR KD) is less than 10 µM.

Regarding `C[C@H]1O[C@H](COc2ccncn2)[C@H](Oc2cccc(C(F)(F)F)n2)[C@@H](O)[C@H]1O` [A446], the equilibrium dissociation constant (Kd) (Table 1E, read-out: ASGPR KD) is less than 10 µM.
